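96-well plates; 48 h exposure; 5 concentrations. Endpoints by linear interpolation between flanking doses. Not reached: highest tested concentration assigned. Abbreviation: GI50, concentration required for 50% inhibition of growth. TGI: concentration producing complete growth inhibition.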

Among the test systems are A549 NSCLC; HT29 colon; OVCAR-8 ovarian; M14 melanoma; SN12C renal; TK-10 renal; NCI/ADR-RES ovarian; SF-268 CNS; SK-MEL-2 melanoma; MOLT-4 leukemia.
Common to all, as to assay: NCI anticancer screen, dose series, 48 h

`CCOP(=O)(OCC)C(Nc1ccc(F)cc1)c1cccc([N+](=O)[O-])c1` (stereo not given): the TGI in the experiment on A549 NSCLC, in the experiment on HT29 colon, in the experiment on OVCAR-8 ovarian, in the experiment with M14 melanoma, with SN12C renal and in the experiment with TK-10 renal was greater than 100 µM throughout. In addition, the TGI in the experiment on NCI/ADR-RES ovarian, in the experiment with SF-268 CNS, in the experiment on SK-MEL-2 melanoma and in the experiment with MOLT-4 leukemia was greater than 100 µM each time.

Regarding `CC1(C)C2CC(c3ccncc3)ON2C(C)(C)N1O` (stereo not given), the TGI in the experiment on A549 NSCLC, in the experiment on HT29 colon, in the experiment with OVCAR-8 ovarian, in the experiment with M14 melanoma, in the experiment on SN12C renal and in the experiment on TK-10 renal was greater than 100 µM each time. In addition, the TGI in the experiment on NCI/ADR-RES ovarian, in the experiment on SF-268 CNS, in the experiment with SK-MEL-2 melanoma and in the experiment on MOLT-4 leukemia was greater than 100 µM throughout.

Regarding `COc1ccc(-c2c(C#N)c(-c3ccccc3)n(NS(=O)(=O)c3ccccc3)c(=O)c2C#N)cc1`, the TGI in the experiment with A549 NSCLC, in the experiment with HT29 colon, in the experiment on OVCAR-8 ovarian, with M14 melanoma, in the experiment on SN12C renal and in the experiment with TK-10 renal was greater than 100 µM throughout. Further, the TGI was greater than 100 µM in the experiment on NCI/ADR-RES ovarian, greater than 100 µM in the experiment with SF-268 CNS, greater than 100 µM with SK-MEL-2 melanoma and 91.2 µM with MOLT-4 leukemia.

Turning to `O=C(/C=C/c1ccc([N+](=O)[O-])cc1)c1nc2ccccc2[nH]1`, the TGI with A549 NSCLC was greater than 100 µM; in the experiment on HT29 colon, greater than 100 µM; in the experiment on OVCAR-8 ovarian, greater than 100 µM; in the experiment on M14 melanoma, greater than 100 µM; in the experiment on SN12C renal, greater than 100 µM; in the experiment with TK-10 renal, greater than 37.8 µM. Also, the TGI with NCI/ADR-RES ovarian is greater than 100 µM; with SF-268 CNS, greater than 100 µM; in the experiment with SK-MEL-2 melanoma, greater than 100 µM; with MOLT-4 leukemia, 99.7 µM.

Turning to `COC(=O)C(COC(=O)/C=C/c1ccc(OC(C)=O)c(OC(C)=O)c1)OC(=O)/C=C/c1ccc(OC(C)=O)c(OC(C)=O)c1` (stereo not given), the TGI in the experiment on A549 NSCLC was 41.6 µM; in the experiment on HT29 colon, 19.7 µM; in the experiment with OVCAR-8 ovarian, 26.4 µM; in the experiment on M14 melanoma, 20.6 µM; in the experiment on SN12C renal, 27.8 µM; in the experiment with TK-10 renal it was 32.8 µM. Moreover, the TGI with NCI/ADR-RES ovarian is 50.5 µM; in the experiment on SF-268 CNS, 64.2 µM; with SK-MEL-2 melanoma it was 26 µM; with MOLT-4 leukemia, 7.2 µM.

On to `Cc1ccc2c(c1)OC1Nc3ccccc3C1=C2O` (stereo not given), for which the TGI in the experiment with A549 NSCLC was greater than 100 µM; with HT29 colon, greater than 100 µM; in the experiment on OVCAR-8 ovarian, greater than 100 µM; with M14 melanoma, 68 µM; in the experiment on SN12C renal it was 93.4 µM; with TK-10 renal, 78.3 µM. The TGI in the experiment with NCI/ADR-RES ovarian is 86.3 µM; in the experiment with SF-268 CNS it was greater than 100 µM; with SK-MEL-2 melanoma, 47.6 µM; in the experiment with MOLT-4 leukemia, greater than 100 µM.

In the case of `O=C(O)c1ccccc1/C=N\NC1=NCCCCN1`, the TGI with A549 NSCLC, with HT29 colon, in the experiment on OVCAR-8 ovarian, in the experiment with M14 melanoma, with SN12C renal and in the experiment on TK-10 renal was greater than 100 µM in each case. In addition, the TGI in the experiment with NCI/ADR-RES ovarian, in the experiment with SF-268 CNS, in the experiment with SK-MEL-2 melanoma and with MOLT-4 leukemia was greater than 100 µM throughout.

Consider `COC1/C=C/C(C)C(C(C)C(OC)C(C)CCC(=O)C(C)C(CCC(=O)O)OC)OC(=O)/C=C/C=C(\C)CC(OC)CC2=CC(=O)O[C@@H](C(C)C(OC)CC(OC)/C=C/C(C)C(OC)C1)[C@H]2O` (stereo not given in full), for which the TGI with A549 NSCLC, in the experiment on HT29 colon, with OVCAR-8 ovarian, in the experiment on M14 melanoma, in the experiment on SN12C renal and with TK-10 renal was greater than 5 µM each time. Also, the TGI is greater than 5 µM in the experiment on NCI/ADR-RES ovarian, greater than 2.47 µM with SF-268 CNS, 1.89 µM in the experiment on SK-MEL-2 melanoma and greater than 3.93 µM in the experiment with MOLT-4 leukemia.

Turning to `COc1cccc(-c2nc3sccn3c2-c2ccnc(NCCNC(=O)Nc3cccc(C(F)(F)F)c3)n2)c1`, the GI50 in the experiment on A549 NSCLC is 3.82 µM; in the experiment on HT29 colon, 3.33 µM; in the experiment with OVCAR-8 ovarian, 3.28 µM; in the experiment on M14 melanoma it was 2.96 µM; in the experiment with SN12C renal, 4.03 µM; in the experiment with TK-10 renal, 3.6 µM. In addition, the GI50 in the experiment on NCI/ADR-RES ovarian is 3.45 µM; in the experiment with SF-268 CNS, 4.59 µM; in the experiment with SK-MEL-2 melanoma it was 2.03 µM; in the experiment on MOLT-4 leukemia it was 3.27 µM. Besides, the TGI with A549 NSCLC is 17.1 µM; in the experiment on HT29 colon, 14 µM; in the experiment on OVCAR-8 ovarian, 9.79 µM; in the experiment with M14 melanoma, 8.48 µM; in the experiment with SN12C renal it was 26.5 µM; with TK-10 renal, 18.8 µM. The TGI with NCI/ADR-RES ovarian was greater than 100 µM; with SF-268 CNS, 43.4 µM; with SK-MEL-2 melanoma it was 4.46 µM; in the experiment on MOLT-4 leukemia, 9.94 µM.

As to `CC1(C)[C@@H]2C[C@H]1c1cnc(-c3ccccn3)cc1C2[C@@H]1c2cc(-c3ccccn3)ncc2[C@@H]2C[C@H]1C2(C)C` (stereo not given in full), the TGI with A549 NSCLC was greater than 100 µM; in the experiment on HT29 colon it was greater than 100 µM; in the experiment on OVCAR-8 ovarian, greater than 100 µM; in the experiment on M14 melanoma, greater than 100 µM; with SN12C renal it was greater than 100 µM; with TK-10 renal it was 75.1 µM. The TGI in the experiment on NCI/ADR-RES ovarian, in the experiment with SF-268 CNS, in the experiment on SK-MEL-2 melanoma and in the experiment with MOLT-4 leukemia was greater than 100 µM in each case.

For the origin of these results see PubChem BioAssay (NCI).
